In publication PMC6297231 (Nature Communications, 2018):
pEC50, pIC50, pKd: −log10 of the molar value. Like-named read-outs stand apart in the source and are kept apart here. Where a SMILES comes first, the peptide text is derived from it. The star is where a group is joined. Biotin = O=C1N[C@H]2[C@H](CS[C@H]2CCCCC(=O)*)N1; Ahx = NCCCCCC(=O)O

How the values were obtained:
[1] = molecular target: MV411; experiment: Caspase-3/7 activation assay; format: cell-based
Protocol: (§4) Cells were plated at 3000 cells/well in 384-well white plates in corresponding cell growth media. […] Caspase-3/7 activation was subsequently determined using a Caspase-Glo 3/7 Reagent (Promega) and viability was assayed using the CellTiter-Glo Reagent (Promega) as described in manufacturer’s instructions. Dose–response curves for caspase-3/7 activation and viability were plotted and analyzed (including EC50 and GI50 determination) using GraphPad Prism.

[2] = molecular target: H23; experiment: Caspase-3/7 activation assay; format: cell-based; conditions: for pEC50: caspase activation, Mcl-1-dependent cell line, read-out: NCI-H23, EC50; for NCI-H23 caspase pEC50: mean of log transformed data
Protocol: as §4

[3] = molecular target: MOLP8; experiment: Caspase-3/7 activation assay; format: cell-based; conditions: for pEC50: caspase activation, Mcl-1-dependent cell line, read-out: MOLP-8, EC50
Protocol: as §4

[4] = molecular target: T1, Mcl-1 (Homo sapiens, UniProt Q07820); experiment: SPR direct binding assay; design: 6His-tagged Mcl-1 protein (E171-G327) was immobilized using NTA capture-coupling; conditions: for pKd: read-out: Mcl-1 SPR, Kd
T1 sequence (Q07820 171-327): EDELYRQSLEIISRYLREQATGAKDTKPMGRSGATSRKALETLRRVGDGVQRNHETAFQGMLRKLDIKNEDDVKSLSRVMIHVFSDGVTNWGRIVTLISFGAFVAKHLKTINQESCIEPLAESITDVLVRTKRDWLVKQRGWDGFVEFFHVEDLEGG
Protocol: A Biacore T200 instrument (GE Healthcare) was used to monitor binding interactions using a direct binding assay format. 6His-tagged Mcl-1 protein (E171-G327) was immobilized using NTA capture-coupling at a flow rate of 10 μL min^-1 and using an immobilization running buffer containing 10 mM HEPES, 300 mM NaCl, 1 mM TCEP, and 0.05% Tween-20 at 25 °C. […] Approximately 300 response units of Mcl-1 protein (2 μg mL^-1 in immobilization running buffer) were immobilized using the ‘aim for’ function in the T200 Control Software (GE Healthcare). Remaining reactive esters were blocked using a 7 min injection of 1 M ethanolamine. Reference flow cells were prepared without protein. All binding measurements were performed in 10 mM Tris, pH 7.5, 300 mM NaCl, 1 mM TCEP, 1% DMSO, and 0.02% Tween-20 at 25 °C at a flow rate of 30 μL min^-1. Buffer was primed through the instrument overnight to stabilize the surface before subsequent assay steps. Prior to kinetic analysis, solvent calibration and double referencing subtractions were made to eliminate bulk refractive index changes, injection noise, and data drift. Affinity and binding kinetic parameters were determined by global fitting to a 1:1-binding model within the Biacore T200 Evaluation Software (GE Healthcare).

[5] = molecular target: T1, Mcl-1; experiment: TR-FRET binding assay; design: N-terminal GST-tagged-Mcl-1 protein from Mcl-1 (E171-G327); made in house; host or cells: E. coli; conditions: for pIC50: read-out: Mcl-1 FRET, IC50
Protocol: Percent inhibition was calculated based upon min (control compound) vs. max (DMSO) according to Eq. (2) and the IC50 was derived the smart fit curve (Genedata screener) of % inhibition vs. concentration. Ki values were calculated from Eq.

[6] = molecular target: T2, Bcl-w (Homo sapiens, UniProt Q92843); experiment: TR-FRET binding assay; conditions: binding to Bcl-w, used in Ki calculations; read-out: Peptide, Kd
T2 construct: N-Terminal 6His-tagged Bcl-w protein from Bcl-w (M1-R171); made in house; host or cells: E. coli
T2 sequence (Q92843 1-171): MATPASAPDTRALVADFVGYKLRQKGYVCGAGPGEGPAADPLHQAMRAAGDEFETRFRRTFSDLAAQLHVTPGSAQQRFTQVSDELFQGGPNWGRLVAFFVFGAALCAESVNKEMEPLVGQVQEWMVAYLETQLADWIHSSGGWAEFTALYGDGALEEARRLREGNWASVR
Description: (§1) N-terminal GST-tagged-Mcl-1 protein from Mcl-1 (E171-G327), N-terminal GST-tagged Bcl-xL protein from Bcl-xL (1-209), N-Terminal 6His-tagged Bfl-1 protein from Bfl-1 (M1-K151), N-Terminal 6His-tagged Bcl-w protein from Bcl-w (M1-R171), and C-Terminal 6His-tagged Bcl-2 protein from Bcl-2 (M1-F212) were expressed as a tagged fusion protein in E. coli and subsequently purified via Glutathione Sepharose-affinity or Ni-NTA resin purification, and size-exclusion chromatography.
(§2) For TR-FRET, tagged fusion proteins were incubated with a Europium-labeled antibody and a HyLite Fluor 647-labeled peptide, or a biotin-labeled peptide with a streptavidin-labeled ulight fluorophore allowing the assembly of donor and acceptor dye pairs for use in protein-binding assays.
(§3) The reaction final concentrations for Mcl-1 were 1.5 nM GST-Mcl-1, 0.5 nM LanthaScreen Eu tagged GST antibody (LifeTechnologies cat#PV5594), and 4 nM HyLite Fluor 647-labeled Bim peptide C (Hilyte647 C2 Maleimide)-[…]; for Bcl-xl were 2 nM GST-Bcl-xl, 2 nM LanthaScreen Eu-tagged GST antibody, and 10 nM HyLite Fluor 647-labeled BAK peptide C(Hilyte647 C2 Maleimide)-[…]; for Bfl-1 were 4 nM His-Bfl-1, 0.5 nM LanthaScreen Eu-tagged HIS antibody (PerkinElmer cat#AD0205), and 10 nM HyLite Fluor 647-labeled BIM peptide C(Hilyte647-C2-Maleimide)-[…]; for Bcl-2 and Bcl-w: 2 nM His-Bcl-2, or 2 nM His-Bcl-w, with 0.5 nM LanthaScreen Eu-tagged HIS antibody, 10 nM biotin-labeled Bim peptide (Biotin-lc-[…]), and 2.4 nM a streptavidin labeled ULight Fluorophore (PerkinElmer cat#TRF0102-D). Reactions were incubated at 24 °C for 120–180 min before reading on a Tecan (InfiniteM1000 spectrofluorometer) with excitation at 340 nm and emission at […] and 665 nm. Ratio of fluorescent emission intensity at 665–620 nm was calculated for each reaction (equation 1). Percent inhibition was calculated based upon min (control compound) vs. max (DMSO) according to Eq. (2) and the IC50 was derived the smart fit curve (Genedata screener) of % inhibition vs. concentration. Ki values were calculated from Eq. […]

[7] = molecular target: T3, Bcl-2 (Homo sapiens, UniProt P10415); experiment: TR-FRET binding assay; conditions: binding to Bcl-2, used in Ki calculations; read-out: Peptide, Kd
T3 construct: C-Terminal 6His-tagged Bcl-2 protein from Bcl-2 (M1-F212); made in house; host or cells: E. coli
T3 sequence (P10415 1-212): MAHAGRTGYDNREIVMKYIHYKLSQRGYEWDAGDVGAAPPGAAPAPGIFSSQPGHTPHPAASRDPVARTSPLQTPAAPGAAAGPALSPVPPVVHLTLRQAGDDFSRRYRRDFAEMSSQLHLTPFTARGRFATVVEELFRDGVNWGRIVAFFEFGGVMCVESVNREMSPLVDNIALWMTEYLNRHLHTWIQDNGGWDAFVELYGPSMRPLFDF
Description: as §1, §2, §3

[8] = test system: OCIAML3; experiment: Caspase-3/7 activation assay; format: cell-based; conditions: Homo sapiens, OCI-AML-3, 6 h, read-out: 6h caspase EC50; OCIAML3, single agent
Protocol: as §4

[9] = test system: Nomo1; experiment: Caspase-3/7 activation assay; format: cell-based; conditions: Homo sapiens, NOMO-1, 6 h, read-out: 6h caspase EC50; NOMO1, single agent
Protocol: as §4

[10] = test system: NB4; experiment: Caspase-3/7 activation assay; format: cell-based; conditions: Homo sapiens, NB-4, 6 h, read-out: 6h caspase EC50; NB4, single agent
Protocol: as §4

[11] = test system: HEL92.1.7; experiment: Caspase-3/7 activation assay; format: cell-based; conditions: Homo sapiens, HEL 92.1.7, 6 h, read-out: 6h caspase EC50; HEL9217, single agent
Protocol: as §4

[12] = test system: OCIAML5; experiment: Caspase-3/7 activation assay; format: cell-based; conditions: Homo sapiens, OCI-AML-5, 6 h, read-out: 6h caspase EC50; OCIAML5, single agent
Protocol: as §4

[13] = test system: MOLM13; experiment: Caspase-3/7 activation assay; format: cell-based; conditions: Homo sapiens, MOLM-13, 6 h, read-out: 6h caspase EC50; MOLM13, single agent
Protocol: as §4

[14] = test system: CMK; experiment: Caspase-3/7 activation assay; format: cell-based; conditions: Homo sapiens, 6 h, read-out: 6h caspase EC50; CMK, single agent
Protocol: as §4

[15] = test system: KG1; experiment: Caspase-3/7 activation assay; format: cell-based; conditions: Homo sapiens, KG-1, 6 h, read-out: 6h caspase EC50; KG1, single agent
Protocol: as §4

[16] = test system: MOLM-13 leukemic cells; experiment: MOLM-13 disseminated AML model; format: in vivo, mice; conditions: venetoclax 100 mg kg^−1 p.o. daily, AZD5991 60 mg kg^−1 i.v. weekly, after 10 days
Description: MOLM-13: These studies complied with all relevant ethical regulations described in the guidelines established by GV-SOLAS Institutional Animal Care and Use Committee. Female CIEA-NOG mice were purchased from Taconic. Mice between 5 and 8 weeks old were tail vein injected with five million MOLM-13 cells. Treatment started 3 days after implantation. AZD5991, venetoclax, and vehicle were formulated and administered as mentioned above. Bone marrow and peripheral blood were collected 10 days post-treatment initiation, followed by red cell lysis (ACK lysis buffer), washes with FC buffer (PBS + 2% FCS) and cell staining with AquaZombie live/dead stain (cat#423102, Biolegend) containing antibodies against human CD45 (cat#564105, BDBiosciences) and human HLA-ABC (cat#561346, BDBiosciences) or isotype controls (mIgG1 cat#552834, BDBiosciences; mIgG1 cat#561504, BDBiosciences). Samples were washed with FC buffer and data acquired on an Attune NXT cytometer and analyzed using FlowJo software. Gating was performed on single/live/FCS vs. SSC/HLA-ABC vs. hCD45 double positive cells (Supplementary Figure 8).

[17] = test system: OCIM1; experiment: Caspase-3/7 activation assay; format: cell-based; conditions: OCI-M1, 6 h, read-out: 6h caspase EC50; OCIM1, single agent
Protocol: as §4

[18] = test system: ME1; experiment: Caspase-3/7 activation assay; format: cell-based; conditions: ME-1, 6 h, read-out: 6h caspase EC50; ME1, single agent
Protocol: as §4

[19] = caspase activation, Mcl-1-dependent cell line, read-out: MV4-11, EC50

Row | SMILES | pEC50 [1, 19] | MV4-11 caspase pEC50 ([1]; mean of log transformed data) | pEC50 [2] | NCI-H23 caspase pEC50 [2] | pEC50 [3] | MOLP-8 caspase pEC50 ([3]; mean of log transformed data) | pKd [4] | pIC50 [5] | other results
1 | Cc1ccccc1-c1cccc2c(CCCOc3cccc4c3CCCC4)c(C(=O)O)[nH]c12 [Compound 1, reference compound] | – | – | – | – | – | – | – | 5.96 | –
2 | CC[C@H](C)[C@H](NC(=O)[C@H](CCCNC(=N)N)NC(=O)[C@H](CCCNC(=N)N)NC(=O)[C@H](CC(C)C)NC(=O)[C@H](CCC(=O)O)NC(=O)[C@H](CC(N)=O)NC(=O)[C@H](C)NC(=O)[C@@H](NC(=O)[C@H](Cc1c[nH]c2ccccc12)NC(=O)[C@@H](NC(=O)[C@H](CCC(=O)O)NC(=O)[C@@H]1CCCN1C(=O)[C@H](CCCNC(=N)N)NC(=O)[C@H](CCSC)NC(=O)CNC(=O)CNC(=O)CCCCCNC(=O)CCCC[C@@H]1SC[C@@H]2NC(=O)N[C@@H]21)[C@@H](C)CC)[C@@H](C)CC)C(=O)NCC(=O)N[C@@H](CC(=O)O)C(=O)N[C@@H](CCC(=O)O)C(=O)N[C@@H](Cc1ccccc1)C(=O)N[C@@H](CC(N)=O)C(=O)N[C@@H](C)C(=O)O [Biotin Bim peptide(biotin-Ic-), reference compound] ({Biotin-Ahx}-GGMRPEIWIANELRRIGDEFNA-OH) | – | – | – | – | – | – | – | – | pKd [6]: 8.00; pKd [7]: 8.30
3 | CC1(C)CCC(CN2CCN(c3ccc(C(=O)NS(=O)(=O)c4ccc(NCC5CCOCC5)c([N+](=O)[O-])c4)c(Oc4cnc5[nH]ccc5c4)c3)CC2)=C(c2ccc(Cl)cc2)C1 [venetoclax, reference compound] | – | – | – | – | – | – | – | – | pEC50 [8]: < 6.48; pEC50 [9]: < 6.48; pEC50 [10]: 7.56; pEC50 [11]: < 6.48; pEC50 ([1]; Homo sapiens, MV4-11, 6 h, read-out: 6h caspase EC50, MV411, single agent): 7.34; pEC50 [12]: 7.14; pEC50 [13]: 8.02; pEC50 [14]: < 6.48; pEC50 [15]: 6.57; percentage of HLA-ABC+ hCD45+ leukemic cells in peripheral blood vs. vehicle [16]: significantly reduced; pEC50 [17]: < 6.48; pEC50 [18]: 7.99
4 | Cc1c2c(nn1C)CSCc1cc(n(C)n1)CSc1cc(c3ccccc3c1)OCCCc1c(C(=O)O)[nH]c3c-2cccc13 [Compound 5] | – | – | – | – | – | – | 7.33 | 7.72 | pEC50 ([1]; Homo sapiens, MV4-11, caspase activation, Mcl-1-dependent cell line, read-out: MV4-11, EC50): < 4.50; EC50 ([1]; Homo sapiens, MV4-11, mean of log transformed data, read-out: MV4-11 caspase pEC50 (converted)): > 31600 nM; pEC50 ([3]; Homo sapiens, MOLP-8): < 4.50; EC50 ([3]; Homo sapiens, MOLP-8, mean of log transformed data, read-out: MOLP-8 caspase pEC50 (converted)): > 31600 nM; Kd ([4]; mean of log transformed data, read-out: MCL1 SPR pKd (converted)): 46.8 nM; IC50 ([5]; mean of log transformed data, read-out: MCL1 FRET pIC50 (converted)): 19.1 nM
5 | Cc1c2c(nn1C)CSCc1cc(n(C)n1)CSc1cc(c3ccccc3c1)OCCCc1c(C(=O)O)n(C)c3c-2c(Cl)ccc13 (atropisomer, axis not shown; (Sa)) [(Sa)-7] | < 4.80 | < 4.8 | < 4.60 | < 4.6 | < 4.80 | < 4.8 | – | – | –

The next lines start with results.

Row | pEC50 [1, 19] | MV4-11 caspase pEC50 ([1]; mean of log transformed data) | pEC50 [2] | NCI-H23 caspase pEC50 [2] | pEC50 [3] | MOLP-8 caspase pEC50 ([3]; mean of log transformed data) | pKd [4] | pIC50 [5] | SMILES | other results
6 | 5.73 | 5.73 | 4.68 | 4.68 | 5.45 | 5.45 | 7.96 | 8.22 | Cc1nn(C)c(COc2ccc(N3CCN(S(=O)(=O)N(C)C)CC3)cc2)c1-c1cccc2c(CCCOc3cccc4ccccc34)c(C(=O)O)n(CCN3CCOCC3)c12 [Compound 8, A-1210477, reference compound] | MCL1 SPR pKd ([4]; mean of log transformed data): 7.94; MCL1 FRET pIC50 ([5]; mean of log transformed data): 8.20
7 | – | – | – | – | – | – | – | 6.11 | Cc1c(-c2cccc3c(CCCOc4cccc5ccccc45)c(C(=O)O)[nH]c23)c(CSCc2nn(C)c(C)c2-c2cccc3c(CCCOc4cccc5ccccc45)c(C(=O)O)[nH]c23)nn1C [Compound 3] | –
8 | 5.98 | 5.98 | 5.24 | 5.24 | 6.18 | 6.18 | 8.10 | 8.40 | Cc1c2c(nn1C)CSCc1cc(n(C)n1)CSc1cc(c3ccccc3c1)OCCCc1c(C(=O)O)n(C)c3c-2cccc13 [Compound 6] | MCL1 SPR pKd ([4]; mean of log transformed data): 8.10; MCL1 FRET pIC50 ([5]; mean of log transformed data): 8.37
